Literature values in patent US20060233843A1, “Treatment of psychosis with a muscarinic m1 receptor ectopic activator” (priority 2003, published 2006).

Molecular target: T1, M1 receptor, residue 381 mutated from tyrosine to alanine (Homo sapiens, UniProt P11229, Y381A)
T1 sequence (P11229 1-460 Y381A): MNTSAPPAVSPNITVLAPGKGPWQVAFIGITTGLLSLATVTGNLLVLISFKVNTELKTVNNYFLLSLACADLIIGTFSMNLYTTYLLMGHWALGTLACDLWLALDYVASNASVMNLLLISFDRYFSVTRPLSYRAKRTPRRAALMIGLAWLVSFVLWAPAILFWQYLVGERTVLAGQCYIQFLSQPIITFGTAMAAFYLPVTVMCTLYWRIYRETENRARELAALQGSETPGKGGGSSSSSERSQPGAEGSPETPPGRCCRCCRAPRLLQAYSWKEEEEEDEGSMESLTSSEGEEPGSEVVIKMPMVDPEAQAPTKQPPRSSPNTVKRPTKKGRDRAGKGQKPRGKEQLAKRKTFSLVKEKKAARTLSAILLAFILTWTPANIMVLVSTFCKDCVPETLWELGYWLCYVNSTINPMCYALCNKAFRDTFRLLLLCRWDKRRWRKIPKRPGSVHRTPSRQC
Details: M1 receptor Y381A mutant versus wild type

| SMILES | effect of mutation of residue 381 from tyrosine to alanine on pharmacology | increase of ectopic agonist potency by mutation of residue 381 from tyrosine to alanine [fold] |
| --- | --- | --- |
| CCCCC1CCN(CCCC(=O)c2ccccc2C)CC1 [AC-42] | not affecting | – |
| Clc1ccc2c(c1)N=C(N1CCNCC1)c1ccccc1N2 [N-desmethylclozapine, Desmethylclozapine] | – | 8 |
